Measured values published in patent publication US9296725B2, “Heterocyclyl pyrimidine analogues as TYK2 inhibitors” (Cellzome Limited, priority 2012, dated 2016).
pIC50: −log10 of the molar value. Like-named read-outs stand apart in the source and are kept apart here.

How the values were obtained:
TYK2 = biological target: T1, TYK2 (Homo sapiens, UniProt P29597); assay: Kinobeads assay, TYK2 (competition binding in mixed Molt4/Ramos cell lysate, dot blot detection)
T1 construct: endogenous in cells; host or cells: Molt4 (ATCC CRL-1582) and Ramos (ATCC CRL-1596), mixed lysate 1:2
Procedure: (§1) The compounds of the present invention as described in the previous examples were tested in a Kinobeads™ assay as described for ZAP-70 (WO-A 2007/137867). Briefly, test compounds (at various concentrations) and the affinity matrix with the immobilized aminopyrido-pyrimidine ligand 24 were added to cell lysate aliquots and allowed to bind to the proteins in 10 the lysate sample. After the incubation time the beads with captured proteins were separated from the lysate. Bound proteins were then eluted and the presence of TYK2 and JAK2 was detected and quantified using specific antibodies in a dot blot procedure and the Odyssey infrared detection system. Dose response curves for individual kinases were generated and IC50 values calculated. Kinobeads™ assays have been previously described (WO-A 2007/137867; WO-A 2006/134056).
(§2) The affinity matrix was washed two times with 15 mL of 1×DP buffer containing 0.2% NP40 (IGEPAL® CA-630, Sigma, #13021) and then resuspended in 1×DP buffer containing 0.2% NP40 (3% beads slurry). 5×DP buffer: 250 mM Tris-HCl pH 7.4, 25% Glycerol, 7.5 mM MgCl2, 750 mM NaCl, 5 mM Na3VO4; filter the 5×DP buffer through a 0.22 μm filter and store in aliquots at −80° C. The 5×DP buffer is diluted with H2O to 1×DP buffer containing 1 mM DTT and 25 mM NaF.
(§3) Stock solutions of test compounds were prepared in DMSO. In a 96 well plate 30 μL solution of diluted test compounds at 5 mM in DMSO were prepared. Starting with this solution a 1:3 dilution series (9 steps) was prepared. For control experiments (no test compound) a buffer containing 2% DMSO was used.
(§4) Molt4 cells (ATCC catalogue number CRL-1582) and Ramos cells (ATCC catalogue number CRL-1596) were grown in 1 L Spinner flasks (Integra Biosciences, #182101) in suspension in RPMI 1640 medium (Invitrogen, #21875-034) supplemented with 10% Fetal Bovine Serum (Invitrogen) at a density between 0.15×10^6 and 1.2×10^6 cells/mL. Cells were harvested by centrifugation, washed once with 1×PBS buffer (Invitrogen, #14190-094) and cell pellets were frozen in liquid nitrogen and subsequently stored at −80° C. Cells were homogenized in a Potter S homogenizer in lysis buffer: 50 mM Tris-HCl, 0.8% NP40, 5% glycerol, 150 mM NaCl, 1.5 mM MgCl2, 25 mM NaF, 1 mM sodium vanadate, 1 mM DTT, pH 7.5. One complete EDTA-free tablet (protease inhibitor cocktail, Roche Diagnostics, 1873580) per 25 mL buffer was added. The material was dounced 10 times using a mechanized POTTER S, transferred to 50 mL falcon tubes, incubated for 30 minutes on ice and spun down for 10 minutes at 20,000 g at 4° C. (10,000 rpm in Sorvall SLA600, precooled). The supernatant was transferred to an ultracentrifuge (UZ)-polycarbonate tube (Beckmann, 355654) and spun for 1 hour at 100.000 g at 4° C. (33.500 rpm in Ti50.2, precooled). The supernatant was transferred again to a fresh 50 mL falcon tube, the protein concentration was determined by a Bradford assay (BioRad) and samples containing 50 mg of protein per aliquot were prepared. The samples were immediately used for experiments or frozen in liquid nitrogen and stored frozen at −80° C.
(§5) Cell lysate (approximately 50 mg protein per plate) was thawed in a water bath at room temperature and then stored on ice. To the thawed cell lysate 1×DP 0.8% NP40 buffer containing protease inhibitors (1 tablet for 25 mL buffer; EDTA-free protease inhibitor cocktail; Roche Diagnostics 1873580) was added in order to reach a final protein concentration of 10 mg/mL total protein. The diluted cell lysate was stored on ice. Mixed Molt4/Ramos lysate was prepared by combining one volume of Molt4 lysate and two volumes of Ramos lysate (ratio 1:2).
(§6) To a 96 well filter plate (Multiscreen HTS, BV Filter Plates, Millipore #MSBVN1250) were added per well: 100 μL affinity matrix (3% beads slurry), 3 μL of compound solution, and 50 μL of diluted lysate. Plates were sealed and incubated for 3 hours in a cold room on a plate shaker (Heidolph tiramax 1000) at 750 rpm. […]

JAK2 = biological target: T2, JAK2 (Homo sapiens, UniProt O60674); assay: Kinobeads assay, JAK2 (competition binding in mixed Molt4/Ramos cell lysate, dot blot detection); details: read-out: JAK2 Band (Kinobeads assay potency, IC50)
T2 construct: endogenous in cells; host or cells: Molt4 (ATCC CRL-1582) and Ramos (ATCC CRL-1596), mixed lysate 1:2
Procedure: as §1, §2, §3, §4, §5, §6

[1] = Kinobeads assay, Molt4/Ramos lysate, read-out: TYK2 Band (Kinobeads assay potency, IC50)

T1 sequence (P29597 whole entry): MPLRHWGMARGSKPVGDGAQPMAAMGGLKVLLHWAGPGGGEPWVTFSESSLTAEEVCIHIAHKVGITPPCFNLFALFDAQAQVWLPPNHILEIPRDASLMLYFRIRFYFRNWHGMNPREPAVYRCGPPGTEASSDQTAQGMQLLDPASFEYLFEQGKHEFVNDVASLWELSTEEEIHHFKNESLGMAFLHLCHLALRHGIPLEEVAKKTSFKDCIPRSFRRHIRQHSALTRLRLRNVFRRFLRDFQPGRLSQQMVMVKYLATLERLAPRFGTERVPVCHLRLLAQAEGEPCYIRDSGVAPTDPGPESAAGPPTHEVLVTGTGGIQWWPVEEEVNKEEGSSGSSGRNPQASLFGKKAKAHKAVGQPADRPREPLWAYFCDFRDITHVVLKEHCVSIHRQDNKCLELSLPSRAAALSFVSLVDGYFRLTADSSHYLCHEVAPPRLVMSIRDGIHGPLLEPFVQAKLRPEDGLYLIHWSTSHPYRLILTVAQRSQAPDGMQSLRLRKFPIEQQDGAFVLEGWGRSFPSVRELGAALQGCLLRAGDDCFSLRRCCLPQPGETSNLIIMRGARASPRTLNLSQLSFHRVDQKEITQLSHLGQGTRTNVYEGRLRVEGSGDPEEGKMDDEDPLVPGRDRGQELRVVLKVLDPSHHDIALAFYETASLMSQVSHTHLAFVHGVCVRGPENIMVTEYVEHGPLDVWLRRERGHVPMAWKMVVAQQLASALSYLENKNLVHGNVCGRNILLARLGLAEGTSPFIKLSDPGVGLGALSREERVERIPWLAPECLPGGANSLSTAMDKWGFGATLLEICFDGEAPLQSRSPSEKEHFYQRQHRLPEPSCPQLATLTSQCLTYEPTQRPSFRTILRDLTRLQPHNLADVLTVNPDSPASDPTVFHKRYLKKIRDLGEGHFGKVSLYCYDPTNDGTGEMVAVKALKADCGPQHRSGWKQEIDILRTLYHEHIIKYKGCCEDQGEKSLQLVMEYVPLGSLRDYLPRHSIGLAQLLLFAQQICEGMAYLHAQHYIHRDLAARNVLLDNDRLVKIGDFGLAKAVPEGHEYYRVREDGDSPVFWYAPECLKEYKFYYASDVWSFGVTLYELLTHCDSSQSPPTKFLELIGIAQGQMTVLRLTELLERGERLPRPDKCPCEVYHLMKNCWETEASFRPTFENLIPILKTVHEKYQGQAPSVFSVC
T2 sequence (O60674 whole entry): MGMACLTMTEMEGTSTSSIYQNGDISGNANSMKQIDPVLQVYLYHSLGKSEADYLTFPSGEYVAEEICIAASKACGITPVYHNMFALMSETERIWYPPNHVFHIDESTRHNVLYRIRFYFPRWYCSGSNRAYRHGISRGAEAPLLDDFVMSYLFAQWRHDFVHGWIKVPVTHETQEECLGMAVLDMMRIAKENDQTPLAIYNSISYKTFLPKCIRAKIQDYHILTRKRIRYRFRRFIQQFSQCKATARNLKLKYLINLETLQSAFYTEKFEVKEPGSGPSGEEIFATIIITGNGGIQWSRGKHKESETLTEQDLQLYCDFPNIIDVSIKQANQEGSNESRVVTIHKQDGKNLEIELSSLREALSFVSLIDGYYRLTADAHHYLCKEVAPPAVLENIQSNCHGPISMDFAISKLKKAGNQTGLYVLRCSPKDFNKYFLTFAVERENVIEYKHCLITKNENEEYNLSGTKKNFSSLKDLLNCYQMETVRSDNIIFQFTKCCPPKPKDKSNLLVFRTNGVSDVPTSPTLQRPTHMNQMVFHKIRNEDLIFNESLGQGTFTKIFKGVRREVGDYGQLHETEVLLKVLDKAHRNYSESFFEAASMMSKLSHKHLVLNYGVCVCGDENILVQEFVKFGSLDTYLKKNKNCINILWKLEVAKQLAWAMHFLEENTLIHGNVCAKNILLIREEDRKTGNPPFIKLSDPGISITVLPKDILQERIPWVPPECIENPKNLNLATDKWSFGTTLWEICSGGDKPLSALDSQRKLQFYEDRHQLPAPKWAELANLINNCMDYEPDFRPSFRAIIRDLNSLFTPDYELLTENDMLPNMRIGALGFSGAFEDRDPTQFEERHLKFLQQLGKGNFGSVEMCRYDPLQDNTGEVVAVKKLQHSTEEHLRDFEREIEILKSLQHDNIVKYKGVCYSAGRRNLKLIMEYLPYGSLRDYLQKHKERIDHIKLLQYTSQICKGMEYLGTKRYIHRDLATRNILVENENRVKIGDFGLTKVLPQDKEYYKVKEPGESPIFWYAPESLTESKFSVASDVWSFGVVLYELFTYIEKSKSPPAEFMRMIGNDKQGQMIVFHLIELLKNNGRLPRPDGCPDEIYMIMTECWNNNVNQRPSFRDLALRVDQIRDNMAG

| pIC50 (TYK2; [1]) | pIC50 (JAK2) | pIC50 (TYK2; read-out: TYK2 IC50) | Compound |
| --- | --- | --- | --- |
| 7.00 to 8.00 | 6.00 to 7.00 |  | CS(=O)(=O)c1ccc(F)c(CNc2nc(Nc3cn[nH]c3)ncc2Cl)c1 [Example I-98] |
| 7.00 to 8.00 | 6.00 to 7.00 |  | Cc1cnc(Nc2cnn(CC(=O)NC3CC3)c2)nc1NCc1cc(F)cc(F)c1F [Example I-101] |
| ≥ 8.00 | 5.00 to 6.00 |  | O=C(Cn1cc(Nc2nccc(NCc3c(F)cc(F)cc3F)n2)cn1)N[C@@H]1C[C@@H]1F [Example I-102] |
| ≥ 8.00 | 5.00 to 6.00 |  | C[C@H](CO)NC(=O)Cn1cc(Nc2nccc(NCc3c(F)cccc3Cl)n2)cn1 [Example I-106] |
| 7.00 to 8.00 | 5.00 to 6.00 | > 7.00 | Fc1cc(F)c(CNc2ccnc(Nc3cnn(CCN4CCOCC4)c3)n2)c(F)c1 [Example I-112] |
| 7.00 to 8.00 | 5.00 to 6.00 |  | CS(=O)(=O)c1ccc(F)c(CNc2nc(Nc3cn[nH]c3)ncc2F)c1 [Example I-114] |
| 7.00 to 8.00 | 5.00 to 6.00 |  | CS(=O)(=O)c1ccc(F)c(CNc2nc(Nc3cnn(CCO)c3)ncc2F)c1 [Example I-115] |
| ≥ 8.00 | 6.00 to 7.00 |  | C[C@@H](CO)NC(=O)Cn1cc(Nc2nccc(NCc3c(Cl)ccc(Cl)c3F)n2)cn1 [Example I-121] |
| ≥ 8.00 | 6.00 to 7.00 |  | COc1ccc(Cl)c(CNc2ccnc(Nc3cnn(CC(=O)N[C@@H](C)CO)c3)n2)c1F [Example I-122] |
| 7.00 to 8.00 | 5.00 to 6.00 |  | COc1ccc(F)c(CNc2ccnc(Nc3cnn(CC(=O)NCC(F)F)c3)n2)c1F [Example I-127] |
| 7.00 to 8.00 | 6.00 to 7.00 |  | C[C@H](CO)NC(=O)Cn1cc(Nc2nccc(NCc3c(Cl)ccc(Cl)c3F)n2)cn1 [Example I-131] |
| ≥ 8.00 | 5.00 to 6.00 |  | C[C@@H](CO)NC(=O)Cn1cc(Nc2nccc(NCc3c(F)cc(F)cc3Cl)n2)cn1 [Example I-132] |
| ≥ 8.00 | 5.00 to 6.00 |  | COc1ccc(F)c(CNc2ccnc(Nc3cnn(CC(=O)N[C@@H](C)CO)c3)n2)c1F [Example I-133] |
| 7.00 to 8.00 | 5.00 to 6.00 |  | Cn1cc(Nc2nccc(NCc3c(F)ccc(C#N)c3F)n2)cn1 [Example I-135] |
| 7.00 to 8.00 | 5.00 to 6.00 |  | O=C(Cn1cc(Nc2nccc(NCc3c(F)cc(F)cc3F)n2)cn1)N[C@@H]1CCOC1 [Example I-137] |
| ≥ 8.00 | 5.00 to 6.00 |  | O=C(Cn1cc(Nc2nccc(NCc3c(F)cccc3Cl)n2)cn1)NC1CC1 [Example I-139] |
| 7.00 to 8.00 | 5.00 to 6.00 |  | C[C@H](CO)NC(=O)Cn1cc(Nc2nccc(NCc3c(F)ccc(F)c3F)n2)cn1 [Example I-143] |
| 7.00 to 8.00 | < 5.00 |  | C[C@@H](CO)NC(=O)Cn1cc(Nc2nccc(NCc3c(F)cncc3F)n2)cn1 [Example I-146] |

More lines, now with the values behind:

| Compound | pIC50 (TYK2; [1]) | pIC50 (JAK2) | pIC50 (TYK2; read-out: TYK2 IC50) |
| --- | --- | --- | --- |
| O=C(Cn1cc(Nc2nccc(NCc3c(F)cc(F)cc3F)n2)cn1)NC1CCOC1 (stereo not drawn) [Example I-95] | 7.00 to 8.00 | 5.00 to 6.00 |  |
| Cn1cc(Nc2ncc(Cl)c(NCc3cc(S(C)(=O)=O)ccc3F)n2)cn1 [Example I-99] | 7.00 to 8.00 | 6.00 to 7.00 |  |
| CS(=O)(=O)c1ccc(F)c(CNc2nc(Nc3cnn(CC(N)=O)c3)ncc2Cl)c1 [Example I-100] | 7.00 to 8.00 | 6.00 to 7.00 |  |
| CC(NC(=O)Cn1cc(Nc2nccc(NCc3c(F)cc(F)cc3F)n2)cn1)C1CCOC1 (stereo not drawn) [Example I-105] | 7.00 to 8.00 | < 5.00 |  |
| COc1ccc(S(C)(=O)=O)cc1CNc1nc(Nc2cnn(CC(F)F)c2)ncc1C [Example I-107] | 7.00 to 8.00 | 6.00 to 7.00 |  |
| N#CCNC(=O)Cn1cc(Nc2nccc(NCc3c(F)cc(F)cc3F)n2)cn1 [Example I-110] | 7.00 to 8.00 | < 5.00 |  |
| CS(=O)(=O)c1ccc(F)c(CNc2nc(Nc3cnn(CC(N)=O)c3)ncc2F)c1 [Example I-116] | 7.00 to 8.00 | 5.00 to 6.00 |  |
| COc1ccc(F)c(CNc2ccnc(Nc3cnn(CC(=O)N4CCOCC4)c3)n2)c1F [Example I-117] | ≥ 8.00 | 5.00 to 6.00 |  |
| Cn1cc(Nc2ncc(Cl)c(NCc3c(F)cccc3C(F)(F)F)n2)cn1 [Example I-118] | 7.00 to 8.00 | 5.00 to 6.00 |  |
| CC(C)NC(=O)Cn1cc(Nc2nccc(NCc3c(Cl)ccc(F)c3Cl)n2)cn1 [Example I-119] | 7.00 to 8.00 | < 5.00 |  |
| C[C@@H](CO)NC(=O)Cn1cc(Nc2nccc(NCc3c(F)cccc3Cl)n2)cn1 [Example I-120] | ≥ 8.00 | 5.00 to 6.00 |  |
| COc1ccc(Cl)c(CNc2ccnc(Nc3cnn(CC(=O)N[C@H](C)CO)c3)n2)c1F [Example I-123] | ≥ 8.00 | 6.00 to 7.00 |  |
| COc1ccc(F)c(CNc2ccnc(Nc3cnn(CC(=O)N[C@H](C)CO)c3)n2)c1F [Example I-124] | 7.00 to 8.00 | 5.00 to 6.00 |  |
| COc1ccc(F)c(CNc2ccnc(Nc3cnn(CC(=O)NC4CC4)c3)n2)c1F [Example I-125] | ≥ 8.00 | 5.00 to 6.00 | > 7.00 |
| COc1ccc(F)c(CNc2ccnc(Nc3cnn(CC(=O)NCCF)c3)n2)c1F [Example I-126] | 7.00 to 8.00 | 5.00 to 6.00 |  |
| COc1ccc(F)c(CNc2ccnc(Nc3cnn(CC(=O)N[C@@H]4C[C@@H]4F)c3)n2)c1F [Example I-128] | 7.00 to 8.00 | 5.00 to 6.00 |  |
| O=C(Cn1cc(Nc2nccc(NCc3c(F)cccc3Cl)n2)cn1)N1CCOCC1 [Example I-129] | ≥ 8.00 | < 5.00 |  |
| Cc1ccc(F)c(CNc2ccnc(Nc3cnn(CC(=O)N[C@@H](C)CO)c3)n2)c1F [Example I-130] | 7.00 to 8.00 | 5.00 to 6.00 |  |
| CC(C)NC(=O)Cn1cc(Nc2nccc(NCc3c(F)ccc(C#N)c3F)n2)cn1 [Example I-134] | ≥ 8.00 | 5.00 to 6.00 |  |
| Fc1cccc(CNc2nc(Nc3cn[nH]c3)ncc2Cl)c1C(F)(F)F [Example I-136] | 7.00 to 8.00 | 6.00 to 7.00 |  |
| O=C(Cn1cc(Nc2nccc(NCc3c(F)cc(F)cc3F)n2)cn1)N[C@H]1CCOC1 [Example I-138] | 7.00 to 8.00 | 5.00 to 6.00 |  |
| O=C(Cn1cc(Nc2nccc(NCc3c(F)cccc3Cl)n2)cn1)NCCF [Example I-140] | 7.00 to 8.00 | 5.00 to 6.00 |  |
| O=C(Cn1cc(Nc2nccc(NCc3c(F)cccc3Cl)n2)cn1)NCC(F)F [Example I-141] | 7.00 to 8.00 | 5.00 to 6.00 |  |
| O=C(Cn1cc(Nc2nccc(NCc3c(F)cccc3Cl)n2)cn1)N[C@@H]1C[C@@H]1F [Example I-142] | 7.00 to 8.00 | 5.00 to 6.00 |  |
| O=C(Cn1cc(Nc2nccc(NCc3c(F)ccc(F)c3F)n2)cn1)NC1CC1 [Example I-144] | ≥ 8.00 | 5.00 to 6.00 |  |
| CC(C)NC(=O)Cn1cc(Nc2nccc(NCc3c(F)cncc3F)n2)cn1 [Example I-145] | ≥ 8.00 | < 5.00 |  |
| C[C@H](CO)NC(=O)Cn1cc(Nc2nccc(NCc3c(F)cncc3F)n2)cn1 [Example I-147] | 7.00 to 8.00 | < 5.00 |  |
| Cn1cc(Nc2nccc(NCc3c(F)cncc3F)n2)cn1 [Example I-148] | 7.00 to 8.00 | 5.00 to 6.00 |  |
| CC(NC(=O)Cn1cc(Nc2nccc(NCc3c(F)cc(F)cc3F)n2)cn1)C(F)F (stereo not drawn) [Example I-149] | 7.00 to 8.00 | < 5.00 |  |
